Paper PMC7044140, “Comparative studies on similarities and differences of cyclodipeptide oxidases for installation of C–C double bonds at the diketopiperazine ring” (Applied Microbiology and Biotechnology, 2020)

How the values were obtained:
AlbA/B = target: T1, AlbA/B (Streptomyces noursei, UniProt Q8GED8+Q8GED9); assay: LC-MS/HPLC product formation with E. coli crude extract; assay type: biochemical; settings: 1 mM substrate, 1 mM phenazine methosulfate, pH 7.5, 40 °C; dehydrogenation
T1 construct: both subunits co-expressed from overlapping genes in pQE-60 (pKB90) in E. coli SG 13009; desalted crude extract; CDOs described as multimers above 2000 kDa, estimated B to A ratio 1:10
T1 sequence (Q8GED9 whole entry): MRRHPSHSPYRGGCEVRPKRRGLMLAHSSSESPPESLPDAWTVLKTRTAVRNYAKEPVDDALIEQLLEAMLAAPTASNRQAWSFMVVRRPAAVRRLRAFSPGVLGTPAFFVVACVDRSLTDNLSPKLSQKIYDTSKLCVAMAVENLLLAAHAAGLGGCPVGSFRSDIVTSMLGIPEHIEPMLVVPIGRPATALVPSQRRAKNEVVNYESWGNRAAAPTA
T1 sequence (Q8GED8 whole entry): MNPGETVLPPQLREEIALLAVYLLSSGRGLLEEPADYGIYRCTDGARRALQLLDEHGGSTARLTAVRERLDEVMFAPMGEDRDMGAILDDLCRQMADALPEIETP

CDO-Np (CDO-NpA/CDO-NpB) = target: T2, CDO-Np (CDO-NpA/CDO-NpB) (Nocardiopsis sp. L17-MgMaSL7, UniProt A0A317LX08+A0A317LXS7); assay: as above; assay type: biochemical; settings: 1 mM substrate, 1 mM phenazine methosulfate, pH 7.5, 40 °C; dehydrogenation
T2 construct: gene BDW27_11054; desalted crude extract
T2 sequence (A0A317LXS7 1-185): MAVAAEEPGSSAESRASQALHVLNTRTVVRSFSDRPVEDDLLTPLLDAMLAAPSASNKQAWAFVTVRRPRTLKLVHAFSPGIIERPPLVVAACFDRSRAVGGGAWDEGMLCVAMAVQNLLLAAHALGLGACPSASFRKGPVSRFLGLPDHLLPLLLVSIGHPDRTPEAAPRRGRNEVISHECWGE
T2 sequence (A0A317LX08 1-105): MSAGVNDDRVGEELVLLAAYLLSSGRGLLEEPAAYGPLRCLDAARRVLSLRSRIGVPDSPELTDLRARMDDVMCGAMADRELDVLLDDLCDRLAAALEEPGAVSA

| SMILES | LC-MS/HPLC product formation with E. coli crude extract (AlbA/B) | LC-MS/HPLC product formation with E. coli crude extract (CDO-Np (CDO-NpA/CDO-NpB)) |
| --- | --- | --- |
| O=C1N[C@@H](Cc2c[nH]c3ccccc23)C(=O)N[C@H]1Cc1ccc(O)cc1 [3a, cyclo-L-Trp-L-Tyr] | Only one didehydrogenated product 3b or 5b was detected in the reaction mixtures of AlbA/B | – |
| O=C1N[C@@H](Cc2ccc(O)cc2)C(=O)N[C@H]1Cc1ccccc1 [2a, cyclo-L-Phe-L-Tyr] | The behavior of AlbA/B with 2a was similar to CDO-Np with 3a and 5a | In vitro incubation of 2a with CDO-Np led to an almost complete conversion to 2d |
| CC(C)C[C@@H]1NC(=O)[C@H](Cc2ccccc2)NC1=O [1a, cyclo-L-Phe-L-Leu] | – | CDO-Np showed very high activity toward 1a and 2a |
